In patent US20080200473A1, “Imidazo [1,2-a]Pyridine Compounds, Compositions, Uses and Methods Thereto” (Ferrer Internacional, S.A., priority 2004, published 2008):

Key:
α1-GABAA receptor = test: Ligand-binding assay, competitive with radiolabeled flumazenil, cerebellum membranes; conditions: Affinity for α1-GABAA receptor, rat cerebellum membranes, radiolabeled flumazenil 1 nM; for % Inhibition 10^−5M: 10^-5M test compound; for % Inhibition 10^−7M: 10^-7M test compound
Procedure: (§1) Ligand-binding assays. Determination of the affinity of test compounds for α1- and α2-GABAA receptor.
(§2) Male Sprague-Dawley rats weighing 200-250 g at the time of experiment were used. After decapitation of the animal, the cerebellum (tissue that mostly contains α1-GABAA receptor) and spinal cord (tissue that mostly contains α2-GABAA receptor) were removed. The membranes were prepared according to the method by J. Lameh et al. (Prog. Neuro-Psychopharmacol. Biol. Psychiatry, 24, 979-991, 2000) and H. Noguchi et al. (Eur. J. Pharm., 434, 21-28, 2002). Once the tissues weighed, they were suspended in 50 mM Tris.HCl (pH 7.4), 1:40 (w/v), or sucrose 0.32 M in the case of spinal cord, homogenized and then centrifuged at 20,000 g for 10 min at 7° C. twice. The resulting pellet was resuspended under the same conditions and centrifuged again. The pellet was finally resuspended on a minimum volume and kept at −80° C. overnight. On the next day, the process was repeated until the final pellet was resuspended at a ratio of 1:10 (w/v) in the case of cerebellum and at a ratio of 1:5 (w/v) in the case of spinal cord.
(§3) Affinity was determined by competitive tests using radiolabeled flumazenil as ligand. The tests were performed according to the methods described by S. Arbilla et al. (Eur. J. Pharmacol., 130, 257-263, 1986); and Y. Wu et al. (Eur. J. Pharmacol., 278, 125-132, 1995) using 96-well microtiter plates. The membranes containing the study receptors, flumazenil (radiolabeling at a final concentration of 1 nM) and ascending concentrations of test compounds (in a total volume of 230 μL in 50 mM [ph 7.4] Tris.HCl buffer) were incubated. Simultaneously, the membranes were only incubated with the radiolabeled flumazenil (total binding, 100%) and in the presence of an elevated concentration of unradiolabeled flumazenil (non-specific binding, % estimation of radiolabeled ligand). The reactions started on adding the radiolabeled ligand followed by incubation for 60 minutes at 4° C. At the end of the incubation period, 200 μL of reaction were transferred to a multiscreen plate (Millipore) and filtered using a vacuum manifold and then washed three times with cold test buffer. The multiscreen plates were equipped with a GF/B filter that retained the membranes containing the receptors and the radiolabeled ligand which has been bound to the receptors. After washing, the plates were left till dry. Once dried, scintillation liquid was added and left under stirring overnight. The next day the plates were counted using a Perkin-Elmer Microbeta scintillation counter.
(§4) For analysis of the results the percentage of specific binding for every concentration of test compound was calculated as follows:
(§5) % specific binding=(X−N/T−N)×100
(§6) where, X: amount of bound ligand for every concentration of compound. T: total binding, maximum amount bound to the radiolabeled ligand. N: non-specific binding, amount of radiolabeled ligand bound in a non-specific way irrespective of the receptor used.
(§7) Every concentrations of compound were tested in triplicate and their mean values were used to determine the experimental values of % specific binding versus the concentration of compound. Affinity data are expressed as % inhibition at 10^-5M and 10^-7M concentrations.

α2-GABAA receptor = test: Ligand-binding assay, competitive with radiolabeled flumazenil, spinal cord membranes; conditions: Affinity for α2-GABAA receptor, rat spinal cord membranes, radiolabeled flumazenil 1 nM; for % Inhibition 10^−5M: 10^-5M test compound; for % Inhibition 10^−7M: 10^-7M test compound
Procedure: as §1, §2, §3, §4, §5, §6, §7

mice = test: In vivo predictive sedation-hypnosis test (inhibition of traveled distance); design: species or system mouse; conditions: male CD1 mice; single equimolecular intraperitoneal doses; traveled distance over 30 min after dosing (first 5 min discarded) versus control
Procedure: In vivo determination of predictive sedative-hypnotic action.
The in vivo effects of these compounds were assessed by a predictive sedation-hypnosis test in mice (D. J. Sanger et al., Eur. J. Pharmacol., 313, 35-42, 1996; and G. Griebel et al., Psychopharmacology, 146, 205-213, 1999).
Groups of 5-8 male CD1 mice, weighing 22-26 g at the time of test, were used. The test compounds were administered in single equimolecular intraperitoneal doses, suspended in 0.25% agar with one drop of Tween in a volume of 10 mL/kg. Control animals received the vehicle alone. Using a Smart System (Panlab, S. L., Spain) the traveled distance in cm is recorded for each mouse at 5-min intervals during a period of 30 minutes after dosing. The inhibition percentage of traveled distance of treated animals versus control animals (the first 5 min were discarded) was calculated.

Row | SMILES | % Inhibition 10^−5M (α1-GABAA receptor) [%] | % Inhibition 10^−7M (α1-GABAA receptor) [%] | % Inhibition 10^−5M (α2-GABAA receptor) [%] | % Inhibition 10^−7M (α2-GABAA receptor) [%] | % Inhibition Motor Activity (mice) [%]
1 | Cc1ccc(-c2nc3ccc(C)cn3c2CNC(=O)c2ccc3ccccc3n2)cc1 [Example 19, Quinoline-2-carboxylic acid (6-methyl-2-p-tolyl-imidazo[1,2-a]pyridin-3-ylmethyl)-amide] | 95.5 | 0.0 | 47.6 | 0.0 | 47.98
2 | Cc1ccc(-c2nc3ccc(C)cn3c2CNC(=O)C2CCC2)cc1 [Example 58, Cyclobutanecarboxylic acid (6-methyl-2-p-tolyl-imidazo[1,2-a]pyridin-3-ylmethyl)-amide] | 98.8 | 6.5 | 78.6 | 9.2 | 94.25
3 | Cc1ccc(-c2nc3ccc(C)cn3c2CN(C)C(=O)c2ncc(F)cc2F)cc1 [Example 33, 3,5-Difluoro-pyridine-2-carboxylic acid methyl-(6-methyl-2-p-tolyl-imidazo[1,2-a]pyridin-3-ylmethyl)-amide] | 98.4 | 37.3 | 74.0 | 0.0 | 35.02
4 | CC(=O)c1ccc(C(=O)NCc2c(-c3ccc(C)cc3)nc3ccc(C)cn23)cc1 [Example 12, 4-Acetyl-N-(6-methyl-2-p-tolyl-imidazo[1,2-a]pyridin-3-ylmethyl)-benzamide] | 73.7 | 18.6 | 19.0 | 0.0 | 56.84
5 | Cc1ccc(-c2nc3ccc(C)cn3c2CNC(=O)c2ccco2)cc1 [Example 4, Furan-2-carboxylic acid (6-methyl-2-p-tolyl-imidazo[1,2-a]pyridin-3-ylmethyl)-amide] | 97.4 | 19.4 | 82.9 | 0.0 | 73.28
6 | C#CCN(Cc1c(-c2ccc(C)cc2)nc2ccc(C)cn12)C(=O)C1CC1 [Example 42, Cyclopropanecarboxylic acid (6-methyl-2-p-tolyl-imidazo[1,2-a]pyridin-3-ylmethyl)-prop-2-ynyl-amide] | 92.7 | 12.4 | 49.7 | 0.0 | 40.35
7 | Cc1ccc(-c2nc3ccc(C)cn3c2CNC(=O)c2cnc(C)cn2)cc1 [Example 61, 5-Methyl-pyrazine-2-carboxylic acid (6-methyl-2-p-tolyl-imidazo[1,2-a]pyridin-3-ylmethyl)-amide] | 100.0 | 85.4 | 98.5 | 48.3 | 90.55
8 | COc1ccc2nc(C(=O)NCc3c(-c4ccc(C)cc4)nc4ccc(C)cn34)sc2c1 [Example 21, 6-Methoxy-benzothiazole-2-carboxylic acid (6-methyl-2-p-tolyl-imidazo[1,2-a]pyridin-3-ylmethyl)-amide] | 67.9 | 3.5 | 25.6 | 0.0 | 57.14
9 | Cc1ccc(-c2nc3ccc(C)cn3c2CNC(=O)c2cc(C)n(C)n2)cc1 [Example 67, 1,5-Dimethyl-1H-pyrazole-3-carboxylic acid (6-methyl-2-p-tolyl-imidazo[1,2-a]pyridin-3-ylmethyl)-amide] | 99.6 | 84.7 | 96.6 | 47.3 | 78.09
10 | Cc1ccc(-c2nc3ccc(C)cn3c2CNC(=O)c2cn(C)cn2)cc1 [Example 74, 1-Methyl-1H-imidazole-4-carboxylic acid (6-methyl-2-p-tolyl-imidazo[1,2-a]pyridin-3-ylmethyl)-amide] | 99.9 | 95.3 | 98.6 | 63.0 | 77.37
11 | Cc1ccc(-c2nc3ccc(C)cn3c2CNC(=O)C2=NNC(=O)CC2)cc1 [Example 65, 6-Oxo-1,4,5,6-tetrahydro-pyridazine-3-carboxylic acid (6-methyl-2-p-tolyl-imidazo[1,2-a]pyridin-3-ylmethyl)-amide] | 99.5 | 83.9 | 95.4 | 39.1 | 85.22
12 | Cc1ccc(-c2nc3ccc(C)cn3c2CN(C)C(=O)c2ccccn2)cc1 [Example 28, Pyridine-2-carboxylic acid methyl-(6-methyl-2-p-tolyl-imidazo[1,2-a]pyridin-3-ylmethyl)-amide] | 99.8 | 73.3 | 93.9 | 14.3 | 55.64
13 | Cc1ccc(-c2nc3ccc(C)cn3c2CNC(=O)c2ncc(F)cc2F)cc1 [Example 20, 3,5-Difluoro-pyridine-2-carboxylic acid (6-methyl-2-p-tolyl-imidazo[1,2-a]pyridin-3-ylmethyl)-amide] | 99.8 | 65.9 | 95.2 | 0.0 | 91.99
14 | Cc1ccc(-c2nc3ccc(C)cn3c2CN(C)C(=O)c2cscn2)cc1 [Example 94, Thiazole-4-carboxylic acid methyl-(6-methyl-2-p-tolyl-imidazo[1,2-a]pyridin-3-ylmethyl)-amide] | 99.5 | 78.5 | 94.5 | 33.2 | 89.33
